1 compound from patent US20110207807A1, “NEW USE FOR HOMOISOFLAVONE OR A SALT THEREOF” (Catholic University Industry Academy Cooperation Foundation, priority 2008, published 2011) can be followed below.

Assay [1] relates to cPLA2. Nature of the assay: UV-induced cPLA2 phosphorylation in HaCaT cells (Western blot). As to conditions: 1 μg/mL, UV (FIG. 2b). Format: cell-based, human. The procedure: In order to identify the intracellular factors affecting COX-2 expression that are affected by homoisoflavanone, Western blotting was carried out in the same manner as in Example 2-1 except for treating with homoisoflavanone at 1 μg/mL, irradiating UV for 45 minutes and using rabbit anti-p-cytosolic phospholipase A2 (cPLA2) antibody, rabbit anti-cPLA2 antibody, rabbit anti-ERK antibody, rabbit anti-p-ERK antibody, rabbit anti-p38 antibody or rabbit anti-p-p38 antibody and using anti-rabbit IgG-HRP conjugation antibody (Zymed) as secondary antibody. Positive control groups were treated with 1 μM SB203580 (A.G. Scientific, Inc.) as p38 inhibitor or 10 μM PD98059 (A.G. Scientific, Inc.) as MEK 1 inhibitor instead of homoisoflavanone.
A general note: A western blot detects proteins with antibodies after separation by electrophoresis.

Assay [2] has as its system NF-κB. Nature of the assay: UV-induced NF-κB nuclear translocation in HaCaT cells (immunocytochemical staining). Format: cell-based, human. The settings on record: 1 μg/mL, UV 100 J/m^2, 4 hours (FIG. 2e). The procedure: In order to investigate whether the transcription factor NF-κB is activated, human keratinocytes HaCaT cells were immunocytochemically stained as follows.
After inoculating the cells on a 14-mm culture slide, the cells were cultured in DMEM containing 10% FBS for 24 hour. Then, the cells were starved by culturing for 24 hours in DMEM containing 1% FBS. Then, after treating with homoisoflavanone at 1 μg/mL for 1 hour, the cells were washed 3 times with PBS and irradiated with UV at 100 J/m^2. Immediately after the UV radiation, the cells were washed again with PBS and further cultured for 4 hours in DMEM containing 1% FBS while treating with homoisoflavanone at the same concentration. Then, the cells were fixed with methanol for 5 minutes and then subjected to immunocytochemical staining.
The fixed cells were blocked with 10% normal goat serum and then washed 3 times with PBS. Then, after fluorescence staining NF-κB using rabbit anti-NF-κB antibody (SantaCruz, USA) and Alexa 488-conjugated anti-rabbit IgG secondary antibody (Invitrogen, USA), counter staining was carried out using Hoechst (Sigma, St. Louis, Mo.).

Assay [3] relates to BALB/c mouse. The assay can be described thus: Ear edema induced by arachidonic acid in animal model. As to conditions: topical 1 μg/10 μL homoisoflavanone or 50 μg/10 μL dexamethasone 1 h before arachidonic acid 100 mg/mL 10 μL, 1 hour after AA, vs AA control (FIG. 5a, 5b). The class given is in vivo. As to the method: Experiment was carried out as follows using BALB/c mouse. Test groups are as follows: non-treated group—treated not with arachidonic acid (AA) but only with acetone; control group (AA)-treated with arachidonic acid; test group A—treated with 1 μg/10 μL homoisoflavanone or 50 μg/10 μL dexamethasone as well as 100 mg/mL 10 μL arachidonic acid.
One hour before treating with arachidonic acid, 1 μg/10 μL homoisoflavanone or 50 μg/10 μL dexamethasone was applied on the front and rear parts of the ear, 5 μL each. Then, 1 hour after applying 100 mg/mL 10 μL arachidonic acid, ear thickness and weight were measured.

For assay [4], the system named is leukotriene B4. The assay can be described thus: Release of leukotriene B4 induced by PMA and A23187 in HMC-1 (enzyme immunoassay). Format: cell-based, human. The text has this:
Phorbol 12-myristate 13-acetate and A23187 lead to degranulation of human mast cells (HMC), causing the mast cells to release not only their histamine or serotonin but also newly produced inflammatory factors such as pro-inflammatory cytokines, prostaglandins and leukotrienes. It was investigated whether homoisoflavanone has anti-inflammatory effect in mast cells as in Examples 4 and 5. In order to investigate the effect of homoisoflavanone on the release of leukotriene induced by phorbol 12-myristate 13-acetate and A23187 in HMC-1, 1×10^6 HMC-1 cells were inoculated on a 100-mm culture dish and cultured in Iscove's modified Dulbecco's medium (IMDM, GIBCO) containing 10% FBS for 48 hours. Then, after treating with homoisoflavanone at 2 μg/mL or with mizolastine at 10 μg/mL for comparison for 1 hour, the cells were treated with 50 nM phorbol 12-myristate 13-acetate and 1 μM A23187 to induce release of leukotriene, and then further cultured for 21 hours. Then, the supernatant was collected and the quantity of released leukotriene B4 and C4 was measured using a leukotriene B4, C4 enzyme immunoassay kit (Sapphire Bioscience, Australia).

Assay [5] deals with IL-6. The assay can be described thus: IL-6 mRNA expression induced by PMA and A23187 in HMC-1 (real-time PCR). As to conditions: HMC-1, 2 μg/mL, 50 nM PMA + 1 μM A23187, 5 hours (FIG. 6c). Format: cell-based, human. As to the method:
In order to investigate the effect of homoisoflavanone on the release of pro-inflammatory cytokines induced by phorbol 12-myristate 13-acetate and A23187 in HMC-1, 5×10^5 HMC-1 cells were inoculated on a 60-mm culture dish and cultured in IMDM containing 10% FBS for 48 hours. Then, after treating with homoisoflavanone at 2 μg/mL, the cells were treated with 50 nM phorbol 12-myristate 13-acetate and 1 μM A23187 to induce release of pro-inflammatory cytokines, and then further cultured for 5 hours.
After extracting RNA from the cells of each test group using TRIzol, cDNA was prepared by carrying out PCR using the RNA as a template. Then, the mRNA expression of IL-6 and IL-8 was measured through real-time PCR using the cDNA as template and using commercially available IL-6 and IL-8 primers. The expression level of the pro-inflammatory cytokines was compared relative to the non-treated group.

Assay [6] deals with COX-2. The assay can be described thus: COX-2 expression induced by PMA and A23187 in human mast cells (Western blot). As to conditions: HMC-1, homoisoflavanone 2 μg/mL or celecoxib 60 μM, 50 nM PMA + 1 μM A23187, 21 hours (FIG. 7a). Format: cell-based. As to the method: In order to investigate the effect of homoisoflavanone on COX-2 expression induced by phorbol 12-myristate 13-acetate and A23187 in human mast cells, 1×10^6 HMC-1 cells were inoculated on a 100-mm culture dish and cultured in IMDM containing 10% FBS for 48 hours.

In assay [7] the test system is Hairless mice. The assay can be described thus: Ear edema transiently induced by croton oil in animal model. The class given is in vivo, mouse. As to conditions: 1 μg/10 μL topical 1 h before 1.6% croton oil, 6 hours after croton oil (FIG. 10b). As to the method:
Hairless mice were subdivided into a non-treated group (treated with acetone only, not with croton oil), a control group (treated with 1.6% croton oil) and a test group (treated with 1 μg/10 μL homoisoflavanone and 1.6% croton oil), and the effect on ear edema induced by croton oil was investigated.
One hour before treating with 1.6% croton oil, 1 μg/10 μL homoisoflavanone was applied on the front and rear parts of the ear, 5 μL each. Then, 6 hours after treating with croton oil, ear thickness was measured.

With `COc1ccc(CC2COc3cc(O)cc(O)c3C2=O)cc1O` (stereo not drawn) [homoisoflavanone], the “phosphorylation of cPLA2” value in assay [1] was “inhibited”. For the same compound, the “migration of NF-κB into the nucleus induced by UV radiation” value in assay [2] was “inhibits”. Moreover, in assay [3], the ear thickness result was “decrease” and the ear weight result is listed as “decrease”. Besides, the “leukotriene B4 release when treated alone, versus non-treated group” value in assay [4] (HMC-1, homoisoflavanone 2 μg/mL or mizolastine 10 μg/mL alone, without PMA/A23187 (FIG. 6a)) was “no appreciable difference”. Also, the “inhibition of release of leukotriene B4” value in assay [4] (HMC-1, homoisoflavanone 2 μg/mL or mizolastine 10 μg/mL, 50 nM PMA + 1 μM A23187, 21 hours (FIG. 6a)) is listed as 70%. In addition, the “inhibition of release (mRNA expression) of IL-6” value in assay [5] came out at 50%. In assay [6], the “inhibition of COX-2 expression” value was 80%. In addition, in assay [7], the “decrease in ear thickness” value stood at 63%.
